Results published in patent US7303739B2, “Prodrugs for liver specific drug delivery” (Metabasis Therapeutics, Inc., priority 1999, dated 2007).

Assays:
[1] = test system: human liver microsomes (CYP3A4, CYP1A2, CYP2C9); experiment: Identification of the P450 isozyme involved in the activation (human microsomes with isozyme inhibitors); assay type: in vitro ADME; details: 0-100 μM inhibitor, 250 μM prodrug
Description: Prodrugs are evaluated for human microsome-catalyzed conversion to parent compound in the absence and presence of specific inhibitors of three major P450 isozymes: ketoconazole (CYP3A4), furafylline (CYP1A2), and sulfaphenazole (CYP2C9).
Methods: Reactions (0.5 ml @ 37° C.) consist of 0.2 M KH2PO4, 13 mM glucose-6-phosphate, 2.2 mM NADP^+, 1 unit of glucose-6-phosphate dehydrogenase, 0-2.5 mg/ml human microsomal protein (In Vitro Technologies, Inc.), 250 μM prodrug, and 0-100 μM P450 isozyme inhibitor. Reactions are stopped by addition of methanol to a concentration of 60%, filtered ([…]), and lyophilized. Samples are resuspended in HPLC buffer (10 mM phosphate pH 5.5, 2.5 mM octyl-triethyl-ammonium), loaded onto a YMC C8 HPLC column (250×4.6 mm), and eluted with a methanol gradient to 80%. Formation of parent drug is confirmed by co-elution with an authentic parent drug standard.

rat embryos in culture = rat embryos in culture (Teratology 39, 31-37 (1989)); cited from earlier work
rat hepatocytes = experiment: Activation of Compound 1.1 to Etoposide in rat hepatocytes; assay type: in vitro ADME
Description: Methods: Hepatocytes were prepared from fed Sprague-Dawley rats (250-300 g) according to the procedure of Berry and Friend (Berry, M. N., Friend, D. S. J. Cell Biol. 43, 506-520 (1969)) as modified by Groen (Groen, A. K. et al. Eur J. Biochem 122, 87-93 (1982)). Hepatocytes (75 mg wet weight/ml) were incubated in 1 ml Krebs-bicarbonate buffer containing 10 mM glucose, and 1 mg/ml BSA. Incubations were carried out in a 95% oxygen, 5% carbon dioxide atmosphere in closed, 50-ml Falcon tubes submerged in a rapidly shaking water bath (37° C.). A 10 mM stock solution of Compound 1.1 was prepared in methanol, and then diluted into the cell suspension or Krebs-bicarbonate buffer to yield a final concentration of 100 μM. […] The cell extracts in the acid layers were neutralized, and the intracellular prodrug metabolite content analyzed by reverse phase HPLC with use of a Beckman Ultrasphere ODS column (4.6×150 mm). The column was equilibrated with 20 mM potassium phosphate buffer, pH 6.3, and eluted with a gradient to 100% methanol. Detection was at 284 nm. Peaks on the chromatograms were identified by comparison to the retention times and spectra of standards of prodrug and parent compound.

[2] = biological target: T1, recombinant human P450-isozyme, CYP3A4 (Homo sapiens, UniProt P08684); experiment: Activation of Compound 1.1 in vitro by recombinant CYP3A4; assay type: in vitro ADME; details: 1 mg/ml Baculosomes, 100 μM Compound 1.1, 2 mM NADPH, 37° C.
T1 construct: purchased Panvera Corp., Madison, Wis; host or cells: baculovirus-infected insect cells (microsomes, Baculosomes)
T1 sequence (P08684 whole entry): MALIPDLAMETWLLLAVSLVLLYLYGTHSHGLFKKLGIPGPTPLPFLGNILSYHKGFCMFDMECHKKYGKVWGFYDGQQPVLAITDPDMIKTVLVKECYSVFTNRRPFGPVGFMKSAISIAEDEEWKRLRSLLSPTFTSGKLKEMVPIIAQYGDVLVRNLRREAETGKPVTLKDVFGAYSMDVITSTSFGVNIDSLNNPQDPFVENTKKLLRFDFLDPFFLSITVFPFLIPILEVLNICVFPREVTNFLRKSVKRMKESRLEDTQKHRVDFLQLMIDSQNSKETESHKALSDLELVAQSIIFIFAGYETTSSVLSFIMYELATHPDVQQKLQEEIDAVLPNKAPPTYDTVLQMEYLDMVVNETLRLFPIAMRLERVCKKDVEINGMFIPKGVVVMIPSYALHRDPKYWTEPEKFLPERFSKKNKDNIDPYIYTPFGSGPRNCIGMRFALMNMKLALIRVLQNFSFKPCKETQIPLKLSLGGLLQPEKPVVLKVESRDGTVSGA
Description: Activation of Compound 1.1 was evaluated in reactions containing microsomes from baculovirus-infected insect cells co-expressing recombinant human P450-isozyme, CYP3A4, and cytochrome P450 reductase (Panvera Corp., Madison, Wis.).
Methods: Reaction mixtures (0.5 ml @ 37° C.) consisted of 1 mg/ml Baculosomes, 100 μM Compound 1.1, 2 mM NADPH and 100 mM KH2PO4 buffer. Reactions were incubated for 30 minutes in an Eppendorf Thermomixer 5436 at 37° C., and reciprocal shaking speed setting 6. 100 μl aliquots were collected at 0, 10, 20 and 30 minutes and quenched with 1.5 volumes of methanol. These extracts were spun for 10 minutes at 14,000 rpm in an Eppendorf microfuge and the supernatants were lyophilized to remove the methanol. The dried supernatant pellets were resuspended in 100 μl 20 mM potassium phosphate buffer, pH 6.3, clarified by centrifugation, and analyzed by HPLC as described in Example A.

[3] = Liver delivery of Etoposide following administration to rat; assay type: in vivo
Description: At appropriate time points following drug administration, animals are lightly anesthetized with halothane. The peritoneal cavity is then opened and a blood sample is obtained from the abdominal vena cava and the liver freeze-clamped and excised.
The blood samples are heparinized and plasma is prepared. Plasma samples (100 μL) are mixed with perchloric acid or methanol, vortexed, and then clarified by centrifugation. The supernatants are analyzed for Etoposide by HPLC as described in Example A.
Livers are immediately homogenized in 3 volumes of 10% perchloric acid (w/w), and the extracts clarified by centrifugation at 2500×g (5 minutes). The resulting supernatants are removed and neutralized with 0.3 volumes of 3M KOH/3M KHCO3. The neutralized liver extracts are then spun in an Eppendorf microfuge at 10,000 rpm (20 minutes, 4° C.). The supernatants are analyzed for Etoposide as described above.

[4] = test system: parent cell line (AHH-1 TK+/−) which does not express CYP3A4; experiment: Compound 1.1 activity in parent lymphoblastoid cells not expressing CYP3A4 (colony forming ability); details: non-CYP3A4 expressing cells, 24 hours exposure, 14 days culture
Description: Following drug exposure, cells are diluted to 10 cells/ml and cultured for 14 days to determine colony forming ability.

[5] = Tissue homogenate activity (activation in homogenates from various tissues); assay type: in vitro ADME, rat; details: 100 μM, 1 hour
Description: Compound 1.1 is tested for activation in homogenates from various tissues to assess the specificity-of liver activation.
Methods: Rats are anesthetized under halothane and tissues including liver, kidney, brain, heart, stomach, spleen, muscle, lung, and testis are excised and frozen in liquid nitrogen. Tissues are then homogenized in 1 to 3 volumes of 50 mM Tris-HCl, 154 mM KCL, 1 mM EGTA, pH 7.4. The homogenates are centrifuged at 10,000 rpm and 4° C. for 30 minutes and the supernatant recovered. Liver cytosol is prepared by centrifuging the crude liver extract for 1 hour at 40,000 rpm and […]. Reaction mixtures consist of 50 mM KH2PO4 pH 7.4, 13 mM glucose-6-phosphate, 2 mM NADP+, 10 units of glucose-6-phosphate dehydrogenase, 100 μM Compound 1.1 and tissue homogenate or liver cytosol at a protein concentration of 8.5 mg/ml. Reactions are incubated at 37° C. Aliquots are taken after 0 and 1 hour of incubation, and extracted with 60% methanol. The methanolic extracts are centrifuged at 14,000 rpm, and filtered prior to analysis by HPLC.

For `CC(=O)N1CCN(c2ccc(OCC3COC(Cn4ccnc4)(c4ccc(Cl)cc4Cl)O3)cc2)CC1` (stereo not shown) [Ketoconazole, ketoconazole], which “inhibition of formation of parent drug by P450 isozyme inhibitor” value (“inhibition of formation of parent drug” below) [1] is on record?
The value was “inhibit the formation parent drug in a dose-dependent fashion”.

What about the “inhibition of formation of parent drug” value ([1]; listed as ketoconozole) of the same molecule?
Its value is “inhibition of drug formation”.

With `Nc1ccc(S(=O)(=O)Nc2ccnn2-c2ccccc2)cc1` [sulfaphenazole] as the molecule, how does the “inhibition of formation of parent drug” value [1] read?
The value was “no significant inhibition”.

Which “inhibition of formation of parent drug” value [1] does the source give for `Cc1nc2c([nH]1)c(=O)n(C)c(=O)n2Cc1ccco1` [furafylline] here?
Its value is “no significant inhibition”.

Which teratogenic activity (rat embryos in culture) does the source give for `C=CC(=O)c1ccccc1` [Phenyl vinyl ketone] here?
The teratogenic activity was “lacks teratogenic activity”.

For `COc1cc(C2c3cc4c(cc3C(OC3OC5COC(C)OC5C(O)C3O)C3COC(=O)C23)OCO4)cc(OC)c1OP1(=O)OCCC(c2ccncc2)O1` (stereo not shown) [Compound 1.1, 4′-O-(2-oxo-4-pyridyl-1,3,2-dioxaphosphorinan-2-yl)-etoposide], which “stability in cell-free incubations” value (rat hepatocytes; Krebs-bicarbonate buffer without cells, 100 μM, 37° C.) is on record?
Its value is “stable”.

What about the “intracellular levels of Etoposide” value (rat hepatocytes; rat hepatocytes, 100 μM Compound 1.1, 2-hour time point) of the same molecule?
The value was “approximately 40 nmoles/gram of cells”.

What about the “activation to Etoposide phosphate and free Etoposide” value (rat hepatocytes; rat hepatocytes, 100 μM, 37° C.) of the same molecule?
Its value is “activated to Etoposide”.

And the “rate of Etoposide phosphate formation” value [2]?
The value was 386 nmoles Etoposide phosphate/nmole CYP3A4/h.

And the liver specificity ([3]; in vivo, relative to free etoposide)?
Its liver specificity is “enhanced liver specificity”.

What about the “area under the curve of Etoposide in liver” value ([3]; rat, oral or intravenous, compared to administration of free Etoposide) of the same molecule?
Its value is “higher”.

And the “levels of Etoposide in plasma” value ([3]; rat, oral or intravenous, compared to free Etoposide)?
Its value is “Reduced levels”.

What about the “cytotoxicity (inhibition of cell colony formation)” value [4] of the same molecule?
The value was “substantial reduction cytotoxic activity”.

And the “activation in crude rat liver homogenate” value ([5]; 8.5 mg/ml protein, 37° C.)?
The value was “depletion of the prodrug and formation of parent compound”.

And the “activation in other tissue homogenates” value ([5]; kidney, brain, heart, stomach, spleen, muscle, lung, testis)?
The value was “fails to result in appreciable activation”.

And the “activation in liver cytosol” value ([5]; liver cytosol without microsomal P450 enzymes, 37° C.)?
Its value is “does not result in activation”.
